Patent US20210405025A1, “IDENTIFYING COMPOUNDS FOR TREATING CANCER AND USE THEREOF” (THE UAB RESEARCH FOUNDATION, priority 2018, published 2021)
Structures can show the parent of a compound that is named as a salt. Where two headings read alike, the source gives them in different places.

Test system: relapsed AML cells
Assay: Drug sensitivity assay, 1,536-well, 3-day culture with individual approved drugs at 10 μM, viability by alamarBlue
Assay type: cell-based, human
Description: Drug sensitivity assays were performed using a 1,536-well platform where all cells and reagents were deposited in wells using an acoustic liquid handling unit that is highly accurate for dispensing of nanoliter volumes of liquid. […] After dispensing the cells into the wells, an independent drug at a known concentration is added to each well and incubated with the cells. After three days, the percentage of live cells in each well is determined to assess the killing efficiency of each compound. […] Cell viability assays are known to those of skill in the art. See, for example, Pemovska et al., Individualized systems medicine strategy to tailor treatments for patients with chemorefractory acute myeloid leukemia. Cancer Discovery 3:1416-1429, 2013; Pabst et al., Identification of small molecules that support human leukemia stem cell activity ex vivo. Nature Methods 11:436-442, 2014; Baccelli et al., A novel approach for the identification of efficient combination therapies in primary human acute myeloid leukemia specimens. Blood Cancer Journal 7:e529, 2017. In studies described herein, the 1,536-well format was utilized, which allowed for use of four times fewer cells as well as less drug and media components due to the small assay volume of 5 microliters. […] Other compounds like CellTiter-Glo (Promega, Madison, Wis.) are equally appropriate reagents for determining cell viability.
Conditions for the drug screening assays were as described in Pabst et al., Identification of small molecules that support human leukemia stem cell activity ex vivo, Nature Methods 11:436-442, 2014). Using this protocol, cells were cultured in Iscove's Modified Dulbecco's Medium (IMDM), 15% BIT (bovine serum albumin, insulin, transferrin; Stem Cell Technologies 09500 (Vancouver, Calif.)), 100 ng/ml SCF (Shenandoah 100-04 (Warwick, Pa.)), 50 ng/ml FLT3L (Shenandoah 100-21), 20 ng/ml IL-3 (Shenandoah 100-80), 20 ng/ml G-CSF (Shenandoah 100-72), 10^-4 M β-mercaptoethanol, gentamicin (50 μg/ml) and ciprofloxacin (10 μg/ml).
Cells were removed from liquid nitrogen and placed in a 37° C. bath, just until thawed. For 1,536-well screens utilizing 6,000 wells about 100 million cells were thawed. The volume was doubled with pre-warmed culture media and placed on ice for about one to two minutes. The cells were brought to a final volume of about 8 to 10 mL before spinning down at 1,100 rpm for 5 min at 10° C. The pelleted cells were resuspended in 10 mL of culture media and plated in a tissue-culture treated T75 flask at a density of 1 to 2 million cells/ml. The cells were cultured overnight prior to fluorescence-activated cell sorting of viable cells on the following day.
After cells were cultured overnight, a cell scraper was used to remove any cells that adhered to the plastic. The cells were gently pipetted up and down to break up aggregates. Then, the entire volume was transferred to a 50 mL conical tube through a 70 micron cell strainer to remove cell clumps. The T75 flask was rinsed and scraped with about 10 mL HBSS and transferred to the same 50 mL conical tube through the strainer. The harvested cells were spun down at 1,100 rpm for 5 min at 10° C. The cells were then resuspendd in about 300-500 microliters FACS buffer (HBSS+2% FBS+1× propidium iodide) and transferred to a FACS tube. The tube was placed on ice and viable cells that are forward- and side-scatter gated on viable myeloid blasts were sorted by FACS (the scatter gate should exclude small lymphocytes, large myeloid cells, and debris). After sorting the required number of viable cells, the cells were spun down at 1,100 rpm for 5 min at 10° C. and subsequently resuspended at 4,000-4,500 cells per 5 microliter volume of complete culture media with growth factors and penicillin/streptomycin.

[1] = number of relapsed AML cases out of 18 tested with >70% cell death, 10 μM, 3-day culture

C[C@@H](Oc1cc(-n2cnc3ccc(CN4CCN(C)CC4)cc32)sc1C(N)=O)c1ccccc1C(F)(F)F [GSK 461364]
#Cases >70% cell death [1]: 9

Cn1cnc([N+](=O)[O-])c1Sc1ncnc2nc[nH]c12 [AZATHIOPRINE]
#Cases >70% cell death [1]: 10

CC(C)c1cc(C(C)C)c(-c2csc(N(CCN(C)C)Cc3cccnc3)n2)c(C(C)C)c1 [FOROPAFANT]
#Cases >70% cell death [1]: 6

CC1=C(C)C(=O)C(C(CCCCCC(=O)O)c2ccccc2)=C(C)C1=O (stereo not shown) [SERATRODAST]
#Cases >70% cell death [1]: 1

COc1cc(Nc2c(C#N)cnc3cc(OCCCN4CCN(C)CC4)c(OC)cc23)c(Cl)cc1Cl [BOSUTINIB]
#Cases >70% cell death [1]: 12

CN1CCc2cccc3c2[C@H]1Cc1ccc(O)c(O)c1-3 [APOMORPHINE]
#Cases >70% cell death [1]: 5

CN(c1ncccc1CNc1nc(Nc2ccc3c(c2)CC(=O)N3)ncc1C(F)(F)F)S(C)(=O)=O [PF-562271]
#Cases >70% cell death [1]: 18

CNC(=O)c1cc(Oc2ccc(NC(=O)Nc3ccc(Cl)c(C(F)(F)F)c3)cc2)ccn1 [SORAFENIB]
#Cases >70% cell death [1]: 9

CN1CCCC(n2nc(Cc3ccc(Cl)cc3)c3ccccc3c2=O)CC1 (stereo not shown) [AZELASTINE]
#Cases >70% cell death [1]: 2

CC(=O)O[C@H]1C(=O)[C@@]2(C)[C@H]([C@H](OC(=O)c3ccccc3)[C@]3(O)C[C@H](OC(=O)[C@H](O)[C@@H](NC(=O)c4ccccc4)c4ccccc4)C(C)=C1C3(C)C)[C@]1(OC(C)=O)CO[C@@H]1C[C@@H]2O [PACLITAXEL]
#Cases >70% cell death [1]: 5

Cc1cc(N)c2ccccc2[n+]1CCCCCCCCCC[n+]1c(C)cc(N)c2ccccc21 [DEQUALINIUM CHLORIDE]
#Cases >70% cell death [1]: 17

CC(C)C[C@H](NC(=O)[C@H](Cc1ccccc1)NC(=O)c1cnccn1)B(O)O [BORTEZOMIB]
#Cases >70% cell death [1]: 18

CC[C@H]1OC(=O)C[C@@H](O)[C@H](C)[C@@H](O[C@@H]2O[C@H](C)[C@@H](O)[C@H](N(C)C)[C@H]2O)[C@@H](CCN2C[C@H](C)C[C@H](C)C2)C[C@@H](C)C(=O)/C=C/C(C)=C/[C@@H]1CO[C@@H]1O[C@H](C)[C@@H](O)[C@@H](OC)[C@H]1OC [TILMICOSIN]
#Cases >70% cell death [1]: 1

OCCN1CCN(CCCN2c3ccccc3Sc3ccc(C(F)(F)F)cc32)CC1 [FLUPHENAZINE]
#Cases >70% cell death [1]: 3

COc1cccc(-c2cc(F)ccc2[C@H]2Cc3nc(N)nc(C)c3C(=O)N2)n1 [HSP-990]
#Cases >70% cell death [1]: 17

Nc1nc2nc[nH]c2c(=S)[nH]1 [THIOGUANINE]
#Cases >70% cell death [1]: 14

FC(F)(F)c1ccc(/C=C/c2nc(COc3ccc(CCCCn4ccnn4)cc3)co2)cc1 [MUBRITINIB]
#Cases >70% cell death [1]: 1

Cc1nc2sccn2c(=O)c1CCN1CCC(=C(c2ccc(F)cc2)c2ccc(F)cc2)CC1 [RITANSERIN]
#Cases >70% cell death [1]: 1

EPRINOMECTIN
#Cases >70% cell death [1]: 5

CN1CCC[C@@H]1CCO[C@](C)(c1ccccc1)c1ccc(Cl)cc1 [CLEMASTINE]
#Cases >70% cell death [1]: 1

CC(C)(Sc1cc(C(C)(C)C)c(O)c(C(C)(C)C)c1)Sc1cc(C(C)(C)C)c(O)c(C(C)(C)C)c1 [PROBUCOL]
#Cases >70% cell death [1]: 4

CN1CCN(CCCN2c3ccccc3Sc3ccc(C(F)(F)F)cc32)CC1 [TRIFLUOPERAZINE]
#Cases >70% cell death [1]: 3

O=C(/C=C/c1cccc(S(=O)(=O)Nc2ccccc2)c1)NO [BELINOSTAT]
#Cases >70% cell death [1]: 1

CCCCC(CC)COC(=O)C(C#N)=C(c1ccccc1)c1ccccc1 (stereo not shown) [OCTOCRYLENE]
#Cases >70% cell death [1]: 1

Cc1cc(C#N)cc(C)c1Oc1nc(Nc2ccc(C#N)cc2)nc(N)c1Br [ETRAVIRINE]
#Cases >70% cell death [1]: 1

ZINC PYRITHIONE
#Cases >70% cell death: 9

CN(C)C(=S)SSC(=S)N(C)C [THIRAM]
#Cases >70% cell death [1]: 4

GRAMICIDIN [GRAMICIDIN (GRAMICIDIN A SHOWN)]
#Cases >70% cell death [1]: 9

CC[C@]1(O)C[C@@H]2CN(CCc3c([nH]c4ccccc34)[C@@](C(=O)OC)(c3cc4c(cc3OC)N(C)[C@H]3[C@@](O)(C(=O)OC)[C@H](OC(C)=O)[C@]5(CC)C=CCN6CC[C@]43[C@@H]65)C2)C1 [VINBLASTINE]
#Cases >70% cell death [1]: 14

Clc1ccc(Cn2c(CN3CCCC3)nc3ccccc32)cc1 [CLEMIZOLE HYDROCHLORIDE]
#Cases >70% cell death [1]: 1

OC(Cn1cncn1)(Cn1cncn1)c1ccc(F)cc1F [FLUCONAZOLE]
#Cases >70% cell death [1]: 1

CC(=O)O[C@H]1C[C@H](O[C@H]2[C@@H](O)C[C@H](O[C@H]3[C@@H](O)C[C@H](O[C@H]4CC[C@@]5(C)[C@H](CC[C@@H]6[C@@H]5C[C@@H](O)[C@]5(C)[C@@H](C7=CC(=O)OC7)CC[C@]65O)C4)O[C@@H]3C)O[C@@H]2C)O[C@H](C)[C@H]1O[C@@H]1O[C@H](CO)[C@@H](O)[C@H](O)[C@H]1O [LANATOSIDE C]
#Cases >70% cell death [1]: 18

COc1cc(C(=O)OCCCN2CCCN(CCCOC(=O)c3cc(OC)c(OC)c(OC)c3)CC2)cc(OC)c1OC [DILAZEP DIHYDROCHLORIDE]
#Cases >70% cell death [1]: 2

Cc1nccn1CC1CCc2c(c3ccccc3n2C)C1=O (stereo not shown) [ONDANSETRON (Zofran), ONDANSETRON]
#Cases >70% cell death [1]: 1

CCN(CC)CCNc1ccc(CO)c2sc3ccccc3c(=O)c12 [HYCANTHONE]
#Cases >70% cell death [1]: 9

CCCCOc1cc(C(=O)OCCN(CC)CC)ccc1N [BENOXINATE]
#Cases >70% cell death [1]: 5

C=CCNC1=C2C[C@@H](C)C[C@H](OC)[C@H](O)[C@@H](C)/C=C(\C)[C@H](OC(N)=O)[C@@H](OC)/C=C\C=C(/C)C(=O)NC(=CC1=O)C2=O [TANESPIMYCIN (17-AAG), TANESPIMYCIN]
#Cases >70% cell death [1]: 18

CCN(CCCc1ccccc1)CCCc1ccccc1 [ALVERINE CITRATE]
#Cases >70% cell death [1]: 4

CC(C)(C)CC(C)(C)c1cc(Cc2cc(C(C)(C)CC(C)(C)C)cc(-n3nc4ccccc4n3)c2O)c(O)c(-n2nc3ccccc3n2)c1 [BISOCTRIZOLE]
#Cases >70% cell death [1]: 1

COc1c(C)c2c(c(O)c1C/C=C(\C)CCC(=O)O)C(=O)OC2 [MYCOPHENOLIC ACID]
#Cases >70% cell death [1]: 5

CN(C)CC(=O)N1CCC(c2ccc(NC(=O)c3nc(C#N)c[nH]3)c(C3=CCCCC3)c2)CC1 [JNJ-28312141]
#Cases >70% cell death [1]: 7

Cc1cc(C(=O)NOCCO)c(Nc2ccc(I)cc2F)n(C)c1=O [AZD8330]
#Cases >70% cell death [1]: 2

AZD-1152
#Cases >70% cell death [1]: 5

CC(C)(C)C(=O)C(Oc1ccc(Cl)cc1)n1ccnc1 (stereo not shown) [CLIMBAZOLE]
#Cases >70% cell death [1]: 1

CC[C@H]1OC(=O)[C@H](C)[C@@H](O[C@H]2C[C@@](C)(OC)[C@@H](O)[C@H](C)O2)[C@H](C)[C@@H](O[C@@H]2O[C@H](C)C[C@H](N(C)C)[C@H]2O)[C@](C)(O)C[C@@H](C)CN(C)[C@H](C)[C@@H](O)[C@]1(C)O [AZITHROMYCIN]
#Cases >70% cell death [1]: 1

C[C@@H](Oc1cc(-c2cnn(C3CCNCC3)c2)cnc1N)c1c(Cl)ccc(F)c1Cl [CRIZOTINIB]
#Cases >70% cell death [1]: 10

Cc1ccc(C(=O)N(CCCN)[C@@H](c2oc3cc(Cl)ccc3c(=O)c2Cc2ccccc2)C(C)C)cc1 [SB743921]
#Cases >70% cell death [1]: 18

Cc1ccc(S(=O)(=O)NC(=O)NN2CC3CCCC3C2)cc1 (stereo not shown) [GLICLAZIDE]
#Cases >70% cell death [1]: 1

C=CC(=O)Nc1cc(Nc2nccc(-c3cn(C)c4ccccc34)n2)c(OC)cc1N(C)CCN(C)C [OSIMERTINIB (tagrisso), OSIMERTINIB]
#Cases >70% cell death [1]: 1
